# Reference: paper PMC11320734 (ACS Pharmacology & Translational Science, 2024)
# “Also recorded” adds a separate entry of the source. Read-outs that look alike come from different tables or passages of the source.
# Experiments:
# human wild type CB2R = human wild type CB2R (Homo sapiens, UniProt P34972); test: β-arrestin2 recruitment assay (Pathhunter); type: cell-based; design: host or cells: CHO cells (Pathhunter)
# GSH adduct formation = type: in vitro ADME, human
# Description: Cytochrome P450 (CYP) assays were conducted as previously described.[41] In brief, RNB-61 was incubated at a range of concentrations with the following components: pooled human liver microsomes, CYP probe substrate around the reported Km, and NADPH with a final concentration: 1 mM in 100 mM sodium phosphate buffer (pH 7.4). The conditions were optimized for a linear metabolic rate for the probe substrate reactions. The analysis of the samples was carried out by LC-MS/MS. The assays generated two endpoints: IC50 (μM) and percent inhibition at the highest acceptable test concentration (typically 50 μM; lower if the highest concentration data are rejected due to insolubility). […] (GSH) adduct formation data was assessed as reported in a previous study.[42] Briefly, RNB-61 was incubated with human liver microsomes to form reactive metabolites, and glutathione was added as a nucleophile to convert the reactive metabolites into stable conjugates that could be analyzed by MS.
# FAAH = FAAH (Homo sapiens, UniProt O00519); test: Endocannabinoid target profiling: FAAH; type: biochemical; conditions: screening concentration 10 μM
# ABHD6 = ABHD6 (Homo sapiens, UniProt Q9BV23); test: Endocannabinoid target profiling: ABHD6; type: biochemical
# rat CB2R = molecular target: T1, rat CB2R (Rattus norvegicus, UniProt Q9QZN9); test: cAMP assay in CHO cells; type: cell-based; conditions: mean ± SD
# T1 construct: expressed in transfected cells; host or cells: CHO cells
# [1] = tested on: renal I/R-induced acute kidney injury; test: Ischemia/reperfusion (I/R) model of acute kidney injury; type: in vivo, C57BL/6 mice
# Description: In the ischemia/reperfusion (I/R) model of acute kidney injury (AKI),[47],[48] the compounds were administered orally by gavage to C57BL/6 mice 30 min before ischemia obtained by clamping both renal arteries and veins for 25 min, followed by 24 h of reperfusion. Mice were anesthetized using xylazine (10 mg kg^–1)/ketamine (100 mg kg^–1) injected intraperitoneally. Sham treated mice were treated identically except for the temporary closure of the renal vessels. After 24 h, under reanesthesia, plasma was taken for biomarker analysis. Thereafter, mice still in deep anesthesia were sacrificed by cervical dislocation. Creatinine, BUN (blood urea nitrogen), NGAL (neutrophil gelatinase-associated lipocalin), osteopontin, and KIM1 (kidney injury molecule-1) levels were determined using the following commercially available standard assays: creatinine: Roche Diagnostics 03263991, BUN: Roche Diagnostics 04460715, NGAL: BioPorto, Kit046 + Kit042, osteopontin: R&D Systems, MOST00, KIM-1: Abnova, KA1064. To assess fibrotic effects, we used the unilateral ureteral obstruction (UOO) model in Sprague–Dawley rats.[49] For the UOO model, rats were sacrificed after 5, 8, and 11 days and the percentage of PicroSirius Red positive areas (indicator of collagen III–I deposition) were measured in 4 μm histological cross sections of the kidney after 2% paraformaldehyde perfusion fixation and paraffin embedding. The extend of kidney fibrosis was quantified based on PicroSirius Red staining of 10 renal sections about 1 mm apart from each kidney. The collagen–III-I-positive pixel counts were determined in the cortical aspect of each kidney section from 10 optical fields using a 40× objective. As the total area analyzed was identical for all kidneys under investigation, the absolute number of pixels was used as the relevant readout. Vehicle treated animals received saline gavage only. The details of PicroSirius Red staining were previously described.[22]
# canine CB2R = canine CB2R (Canis lupus familiaris, UniProt E2RKA3); test: cAMP assay in CHO cells; type: cell-based; conditions: mean ± SD; read-out: EC50 cAMP assay, dog CB2R
# pKa = type: physicochemical; conditions: basic nitrogen N1 of the pyrazole ring
# [2] = Octanol/water distribution coefficient (logD), CAMDIS assay; type: physicochemical
# Description: For the determination of the octanol/water distribution coefficient (logD), the carrier-mediated distribution system (CAMDIS)-assay was used as described elsewhere.[38] Kinetic and thermodynamic solubilities were assessed using the lyophilization solubility assay (LYSA) and thermodynamic solubility assay (THESA), respectively. For the LYSA, the solubility of RNB- 61 in phosphate buffer at pH 6.5 from an evaporated 10 mM DMSO compound stock solution was measured. Two aliquots of the test compounds were dried and dissolved in phosphate buffer at pH 6.5. The solutions were then filtered and diluted (3 different dilution levels for each compound) before high throughput mass spectrometry (MS) analysis was performed in an Agilent RapidFire system. Each test compound was quantified using a 6-point calibration curve prepared with the same DMSO starting solution. For THESA, RNB-61 (8.6 mg per mL solvent/vehicle) was stirred in HPLC vials (9 × 12 × 32 mm, Waters) at 350 rpm for 15 h. The presence of solid particles was determined by microscopic analysis of 10 μL samples. If the active pharmacological ingredient (API) was completely dissolved, more solid API was added before stirring for another 15 h. This step was repeated for up to 96 h or until residual solid particles could be detected. Samples (0.5 mL) were transferred to Eppendorf Ultrafree filter tubes (Filter: PVDF 0.22 μm) and centrifuged at 14,500 rpm for 10 min. The filtrates were diluted in ethanol and analyzed by ultra-performance liquid chromatography (UPLC). Measurements were repeated in 0.05 M aqueous phosphate buffer and in fasted (FaSSIF) and fed (FeSSIF) simulated gastrointestinal fluids.
# [3] = 3 mg kg^–1 p.o., 24 h reperfusion
# [4] = maximal protection at 3–30 mg kg^–1
# Sequence of human wild type CB2R (P34972 whole entry): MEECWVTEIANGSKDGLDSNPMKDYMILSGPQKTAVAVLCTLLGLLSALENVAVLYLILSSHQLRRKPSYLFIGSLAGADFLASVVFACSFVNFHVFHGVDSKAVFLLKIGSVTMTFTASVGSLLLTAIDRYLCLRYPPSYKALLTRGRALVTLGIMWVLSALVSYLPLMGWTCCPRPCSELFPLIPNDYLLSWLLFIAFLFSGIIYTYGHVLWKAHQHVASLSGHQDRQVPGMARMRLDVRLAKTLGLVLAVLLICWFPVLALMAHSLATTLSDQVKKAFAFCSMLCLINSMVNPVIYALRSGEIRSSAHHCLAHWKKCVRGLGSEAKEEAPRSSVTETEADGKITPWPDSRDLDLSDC
# Sequence of ABHD6 (Q9BV23 whole entry, species assumed): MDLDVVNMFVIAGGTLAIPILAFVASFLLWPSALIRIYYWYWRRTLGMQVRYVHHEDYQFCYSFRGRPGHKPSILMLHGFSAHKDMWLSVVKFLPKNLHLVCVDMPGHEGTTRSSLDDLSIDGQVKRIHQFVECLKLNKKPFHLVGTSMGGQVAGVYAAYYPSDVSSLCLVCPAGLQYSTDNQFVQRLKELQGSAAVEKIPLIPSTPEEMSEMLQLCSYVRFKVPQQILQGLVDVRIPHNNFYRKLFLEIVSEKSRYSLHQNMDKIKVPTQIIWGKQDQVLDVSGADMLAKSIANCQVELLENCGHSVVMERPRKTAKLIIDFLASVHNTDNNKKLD
# T1 sequence (Q9QZN9 whole entry): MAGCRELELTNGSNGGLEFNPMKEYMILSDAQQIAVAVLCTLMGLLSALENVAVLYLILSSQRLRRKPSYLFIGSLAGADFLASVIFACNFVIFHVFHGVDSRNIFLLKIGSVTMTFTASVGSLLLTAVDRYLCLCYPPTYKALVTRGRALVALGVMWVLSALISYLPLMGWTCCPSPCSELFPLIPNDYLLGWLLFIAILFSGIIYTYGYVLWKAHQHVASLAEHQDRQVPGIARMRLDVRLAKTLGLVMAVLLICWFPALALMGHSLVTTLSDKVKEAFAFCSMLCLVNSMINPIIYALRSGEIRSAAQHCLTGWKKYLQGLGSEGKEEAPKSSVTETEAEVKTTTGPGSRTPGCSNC
# Sequence of FAAH (O00519 whole entry): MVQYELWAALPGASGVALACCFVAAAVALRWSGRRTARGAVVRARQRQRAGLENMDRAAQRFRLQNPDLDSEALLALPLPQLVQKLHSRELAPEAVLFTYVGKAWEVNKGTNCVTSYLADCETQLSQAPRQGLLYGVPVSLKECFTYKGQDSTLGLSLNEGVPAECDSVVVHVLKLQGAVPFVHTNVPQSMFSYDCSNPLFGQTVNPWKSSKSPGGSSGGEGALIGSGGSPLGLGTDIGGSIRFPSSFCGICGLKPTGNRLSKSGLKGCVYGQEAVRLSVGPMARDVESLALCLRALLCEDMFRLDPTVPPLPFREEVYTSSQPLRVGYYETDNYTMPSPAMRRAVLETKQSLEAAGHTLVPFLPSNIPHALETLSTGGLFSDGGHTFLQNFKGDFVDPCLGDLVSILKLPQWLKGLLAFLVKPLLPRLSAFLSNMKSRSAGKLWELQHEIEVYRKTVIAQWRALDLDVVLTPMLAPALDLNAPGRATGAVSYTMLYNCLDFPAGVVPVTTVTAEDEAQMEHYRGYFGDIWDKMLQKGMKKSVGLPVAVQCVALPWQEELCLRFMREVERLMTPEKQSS
# Sequence of canine CB2R (E2RKA3 1-360): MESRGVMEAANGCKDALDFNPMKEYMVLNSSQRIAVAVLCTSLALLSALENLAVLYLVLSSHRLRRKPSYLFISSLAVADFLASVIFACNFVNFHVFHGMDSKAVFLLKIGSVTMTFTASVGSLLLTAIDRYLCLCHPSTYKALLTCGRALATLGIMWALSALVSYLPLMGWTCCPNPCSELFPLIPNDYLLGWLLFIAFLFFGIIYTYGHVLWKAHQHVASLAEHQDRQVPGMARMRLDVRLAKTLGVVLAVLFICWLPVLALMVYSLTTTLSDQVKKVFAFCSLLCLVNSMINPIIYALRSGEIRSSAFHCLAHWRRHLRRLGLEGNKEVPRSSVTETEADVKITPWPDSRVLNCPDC
smiles,measurement,setting,value
Cn1c(C(C)(C)C)cc(=NC(=O)c2cc(C(F)(F)F)ccc2OCC(C)(C)O)n1CC1CCC1 [RNB-61],EC50,"human wild type CB2R; Figure 2, normalized to 1 μM CP55940",13.3 ± 1.9 nM
same,Emax,"human wild type CB2R; percentage normalized to 1 μM CP55940, read-out: Emax β-arrestin2 recruitment",80%
same,Emax,"human wild type CB2R; relative to CP55,940, text, read-out: Emax of total β-arrestin2 recruitment",~80%
same,GSH adducts (human liver microsomes),GSH adduct formation,did not form any adducts; also recorded: no adducts detected
same,inhibition of EC hydrolysis by FAAH,FAAH,did not inhibit
same,IC50,"ABHD6; Table S1, read-out: ABHD6 (Ki, IC50)",> 10000 nM
same,inhibition of EC hydrolysis by ABHD6,ABHD6; screening concentration 10 μM,did not inhibit
same,EC50,rat CB2R,0.13 ± 0.07 nM
same,effect on I/R induced plasma creatinine levels,[1]; 0.1 mg kg^–1,No significant difference
same,reduction of BUN compared to vehicle,[1]; [3],30%
same,reduction of plasma creatinine compared to vehicle,[1]; [3],48%
same,reduction of plasma KIM-1 compared to vehicle,[1]; [4],50%
same,reduction of plasma NGAL compared to vehicle,[1]; [4],39%
same,reduction of plasma osteopontin compared to vehicle,[1]; [4],43%
same,dose from which KIM-1 release is inhibited,"[1]; mouse, in vivo",0.3 mg kg^–1
same,dose from which NGAL release is inhibited,"[1]; mouse, in vivo",0.3 mg kg^–1
same,dose from which osteopontin release is inhibited,"[1]; mouse, in vivo",3 mg kg^–1
same,EC50,canine CB2R,1.86 ± 1.58 nM
same,pKa,pKa,7.33
same,pKa,pKa; read-out: pKa,7.37
same,logD,"[2]; Table 3, read-out: clogP (cell says logD)",3.34
same,logD,"[2]; octanol/water, read-out: logD",3.3
